Test results: paper PMC8949103 (Viruses, 2022)

Key:
PDCoV M^pro [1] = target: T1, PDCoV M^pro (Porcine deltacoronavirus, UniProt A0A140ESF0); assay: fluorogenic peptide cleavage assay, progress-curve inactivation; format: biochemical; conditions: covalent; Michael acceptor N3 derivative; assay similar to N3
[2] = target: Porcine deltacoronavirus (PDCoV) main protease (M^pro) (Porcine deltacoronavirus (PDCoV)); assay: crystal structure
PDCoV M^pro [3] = target: T1, PDCoV M^pro; assay: fluorogenic peptide cleavage assay, progress-curve inactivation; format: biochemical; conditions: covalent; irreversible, Cys-144, active site; substrate MCA-AVLQSGFR-Lys(Dnp)-Lys-NH2 50 µM; enzyme 2 µM; pH 7.3, 30 °C

Row | Compound | KI (inactivation) (PDCoV M^pro [1]) [µM] | also measured
1 | COc1ccc(COC(=O)/C=C/[C@H](C[C@@H]2CCNC2=O)NC(=O)[C@H](CC(C)C)NC(=O)[C@@H](NC(=O)[C@H](C)NC(=O)c2cc(C)on2)C(C)C)cc1 [M25] | 8.8 ± 0.15 | –
2 | Porcine deltacoronavirus (PDCoV) main protease (M^pro) (enzyme) | – | stoichiometry N [2]: 2
3 | Cc1cc(C(=O)N[C@@H](C)C(=O)N[C@H](C(=O)N[C@@H](CC(C)C)C(=O)N[C@H](/C=C/C(=O)OC(C)C)C[C@@H]2CCNC2=O)C(C)C)no1 [M14] | 7.56 ± 0.26 | –
4 | Cc1cc(C(=O)N[C@@H](C)C(=O)N[C@H](C(=O)N[C@@H](CC(C)C)C(=O)N[C@H](/C=C/C(=O)OCc2ccccc2)C[C@@H]2CCNC2=O)C(C)C)no1 [N3] | – | KI (inactivation) (PDCoV M^pro [3]): 12 ± 0.13 µM
